# Source: patent US20220402925A1, “COMPOUNDS AND METHODS FOR THE TREATMENT OF CYSTIC FIBROSIS” (Flatley Discovery Lab, LLC, priority 2019, published 2022)
# Molecular target: T1, F508del CFTR (Homo sapiens, UniProt P13569, DEL508-508)
# T1 construct: Primary CF airway epithelial cells were obtained from the UNC Cystic Fibrosis Tissue Procurement and Cell Culture Core; host or cells: primary CF airway epithelial cells
# Assay: Equivalent current assay in primary CF airway epithelial cells (Corrector Activity, NAUC normalized to 3 μM VX809)
# Assay type: cell-based
# Conditions: NAUC as % of positive control (VX-809)
# Outline: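 Readout is NAUC: current area from forskolin/potentiator addition until CFTR-172, minus vehicle, relative to 3 μM VX809 (=1.0). Cells were primary CF epithelia at air-liquid interface ≥4 weeks, given basolateral compound for 24 h at 37° C; median of n≥4 replicates, sigmoid fit with nH fixed at 1.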
# T1 sequence (P13569 with tags, fused parts or gaps DEL508-508): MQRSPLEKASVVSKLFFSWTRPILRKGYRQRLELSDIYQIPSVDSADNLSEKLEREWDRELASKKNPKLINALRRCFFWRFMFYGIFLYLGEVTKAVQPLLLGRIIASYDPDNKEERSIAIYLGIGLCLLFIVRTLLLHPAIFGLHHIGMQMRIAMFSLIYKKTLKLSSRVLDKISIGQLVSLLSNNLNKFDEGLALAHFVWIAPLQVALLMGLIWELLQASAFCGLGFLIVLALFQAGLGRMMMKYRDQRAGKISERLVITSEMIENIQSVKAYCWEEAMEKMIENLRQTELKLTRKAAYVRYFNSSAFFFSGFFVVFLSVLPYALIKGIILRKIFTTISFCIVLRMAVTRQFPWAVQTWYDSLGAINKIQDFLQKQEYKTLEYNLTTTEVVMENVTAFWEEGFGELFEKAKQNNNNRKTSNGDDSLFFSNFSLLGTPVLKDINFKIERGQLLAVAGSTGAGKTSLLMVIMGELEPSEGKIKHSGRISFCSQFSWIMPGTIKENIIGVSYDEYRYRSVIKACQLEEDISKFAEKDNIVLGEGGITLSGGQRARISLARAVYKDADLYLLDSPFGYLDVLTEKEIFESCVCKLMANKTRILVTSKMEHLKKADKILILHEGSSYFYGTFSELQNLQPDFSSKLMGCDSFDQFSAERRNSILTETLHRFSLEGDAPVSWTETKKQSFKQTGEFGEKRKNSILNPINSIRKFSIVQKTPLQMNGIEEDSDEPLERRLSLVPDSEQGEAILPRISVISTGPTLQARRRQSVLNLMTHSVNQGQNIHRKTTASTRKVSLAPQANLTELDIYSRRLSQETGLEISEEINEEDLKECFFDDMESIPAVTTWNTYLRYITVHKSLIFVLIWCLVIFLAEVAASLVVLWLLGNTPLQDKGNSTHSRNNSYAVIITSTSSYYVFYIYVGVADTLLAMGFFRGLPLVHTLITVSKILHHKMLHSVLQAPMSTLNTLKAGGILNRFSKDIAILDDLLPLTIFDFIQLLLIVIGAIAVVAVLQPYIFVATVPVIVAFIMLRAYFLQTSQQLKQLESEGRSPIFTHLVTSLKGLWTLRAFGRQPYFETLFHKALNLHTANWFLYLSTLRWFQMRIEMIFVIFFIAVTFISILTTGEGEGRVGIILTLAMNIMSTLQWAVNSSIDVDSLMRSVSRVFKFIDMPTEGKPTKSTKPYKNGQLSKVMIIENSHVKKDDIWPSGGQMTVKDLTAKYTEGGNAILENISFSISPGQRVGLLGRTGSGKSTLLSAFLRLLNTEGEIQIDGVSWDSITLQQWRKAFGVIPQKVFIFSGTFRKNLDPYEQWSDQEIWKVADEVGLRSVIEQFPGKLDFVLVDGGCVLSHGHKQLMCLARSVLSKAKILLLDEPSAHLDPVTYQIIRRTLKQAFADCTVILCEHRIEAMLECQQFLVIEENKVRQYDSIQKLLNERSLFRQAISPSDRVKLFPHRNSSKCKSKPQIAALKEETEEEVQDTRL
row,SMILES,Corr Activity (NAUC)
1,"CN(C(=O)Cn1nc(-c2cccc(Cl)c2)c2oc(C(C)(C)O)cc2c1=O)c1ccc2c(c1)OC(F)(F)O2 [Example 184, 2-(7-(3-chlorophenyl)-2-(2-hydroxypropan-2-yl)-4-oxofuro[2,3-d]pyridazin-5(4H)-yl)-N-(2,2-difluorobenzo[d][1,3]dioxol-5-yl)-N-methylacetamide]",+++ (NAUC>70% of positive control)
2,CCN(C(=O)Cn1nc(-c2cc(Cl)cc(C#N)c2)c2oc(C(=O)NC(C)(C)C)cc2c1=O)c1cc2c(cc1C)OC(F)(F)O2 [Example 137],+++ (NAUC>70% of positive control)
3,CCN(C(=O)Cn1nc(-c2cccc(Cl)c2)c2oc(C(=O)NC(C)(C)C)cc2c1=O)c1ccc2c(c1)OC(F)(F)O2 [Example 120],+++ (NAUC>70% of positive control)
4,CCN(C(=O)Cn1nc(-c2cc(F)cc(OC)c2)c2occc2c1=O)c1ccc2c(c1)OC(F)(F)O2 [Example 47],+++ (NAUC>70% of positive control)
5,CCN(C(=O)Cn1nc(-c2cc(F)cc(C#N)c2)c2occc2c1=O)c1ccc2c(c1)OC(F)(F)O2 [Example 177],+++ (NAUC>70% of positive control)
6,"N#Cc1cccc(-c2nn(CC(=O)N(c3ccc4c(c3)OC(F)(F)O4)C3CCC3)c(=O)c3ccoc23)c1 [Example 33, 2-(7-(3-cyanophenyl)-4-oxofuro[2,3-d]pyridazin-5(4H)-yl)-N-cyclobutyl-N-(2,2-difluorobenzo[d][1,3]dioxol-5-yl)acetamide]",+++ (NAUC>70% of positive control)
7,Cc1c(N(C)C(=O)Cn2nc(-c3cc(Cl)cc(C#N)c3)c3oc(C(=O)NC(C)(C)C)cc3c2=O)ccc2c1OC(F)(F)O2 [Example 141],+++ (NAUC>70% of positive control)
8,CCN(C(=O)Cn1nc(-c2cccc(C#N)c2)c2occc2c1=O)c1ccc2c(c1C)OC(F)(F)O2 [Example 54],+++ (NAUC>70% of positive control)
9,CCN(C(=O)Cn1nc(-c2cc(F)cc(Cl)c2)c2oc(C3CC3)cc2c1=O)c1ccc2c(c1)OC(F)(F)O2 [Example 223],+++ (NAUC>70% of positive control)
10,CCN(C(=O)Cn1nc(-c2cc(C)cc(C#N)c2)c2oc(C(F)F)cc2c1=O)c1ccc2c(c1)OC(F)(F)O2 [Example 189],+++ (NAUC>70% of positive control)
11,Cc1nc2ccc(N(C)C(=O)Cn3nc(-c4cccc(F)c4)c4oc5ccccc5c4c3=O)cc2o1 [Example 157],++ (NAUC 70-40% of positive control)
12,CCN(C(=O)Cn1nc(-c2ccc(C)c(CO)c2)c2[nH]cnc2c1=O)c1ccc2c(c1)OC(F)(F)O2 [Example 337],+ (NAUC<40% of positive control)
13,CCN(C(=O)Cn1nc(-c2ccc(C(=O)OC)c(Cl)c2)c2[nH]cnc2c1=O)c1ccc2c(c1)OC(F)(F)O2 [Example 316],++ (NAUC 70-40% of positive control)
14,Cc1cc2c(cc1N(C)C(=O)Cn1nc(-c3cc(Cl)cc(C#N)c3)c3oc(C(F)F)cc3c1=O)OC(F)(F)O2 [Example 193],+++ (NAUC>70% of positive control)
15,CCN(C(=O)Cn1nc(-c2cccc(C#N)c2)c2[nH]cnc2c1=O)c1ccc2c(c1F)OC(F)(F)O2 [Example 250],+++ (NAUC>70% of positive control)
16,CCN(C(=O)Cn1nc(-c2cc(Cl)cc(C#N)c2)c2occc2c1=O)c1cc2c(cc1C)OC(F)(F)O2 [Example 169],+++ (NAUC>70% of positive control)
17,CCN(C(=O)Cn1nc(-c2cccc(C#N)c2)c2oc(CN3CCOCC3)cc2c1=O)c1ccc2c(c1)OC(F)(F)O2 [Example 202],+++ (NAUC>70% of positive control)

row,SMILES,Corr Activity (NAUC)
1,CCN(C(=O)Cn1nc(-c2ccc3ccccc3c2)c2[nH]cnc2c1=O)c1ccc2c(c1)OC(F)(F)O2 [Example 292],+ (NAUC<40% of positive control)
2,CCN(C(=O)Cn1nc(-c2cccc(F)c2)c2cn[nH]c2c1=O)c1ccc2c(c1)OC(F)(F)O2 [Example 495],++ (NAUC 70-40% of positive control)
3,Cc1nc2ccc(N(C)C(=O)Cn3nc(-c4cccc(F)c4)c4sc(C)nc4c3=O)cc2o1 [Example 19],+++ (NAUC>70% of positive control)
4,Cc1cc2c(cc1N(C)C(=O)Cn1nc(-c3cc(F)cc(C#N)c3)c3occc3c1=O)OC(F)(F)O2 [Example 166],+++ (NAUC>70% of positive control)
5,CCN(C(=O)Cn1nc(-c2cc(Cl)cc(C#N)c2)c2oc(C3CC3)cc2c1=O)c1ccc2c(c1)OC(F)(F)O2 [Example 224],+++ (NAUC>70% of positive control)
6,Cc1c(N(C)C(=O)Cn2nc(-c3cccc(C#N)c3)c3occc3c2=O)ccc2c1OC(F)(F)O2 [Example 53],+++ (NAUC>70% of positive control)
7,O=C(Cn1nc(-c2ccc3c(ccn3S(=O)(=O)c3ccccc3)c2)c2[nH]cnc2c1=O)N(c1ccc2c(c1)OC(F)(F)O2)C1CC1 [Example 423],+ (NAUC<40% of positive control)
8,CCN(C(=O)Cn1nc(-c2cccc(C#N)c2)c2occc2c1=O)c1cc2c(cc1C)OC(F)(F)O2 [Example 45],+++ (NAUC>70% of positive control)
9,CN(C(=O)Cn1nc(-c2cccc(C#N)c2)c2[nH]cnc2c1=O)c1ccc2c(c1F)OC(F)(F)O2 [Example 251],+++ (NAUC>70% of positive control)
10,CN(C(=O)Cn1nc(-c2cccc(C#N)c2)c2sccc2c1=O)c1ccc2c(c1)OC(F)(F)O2 [Example 7],+++ (NAUC>70% of positive control)
11,Cc1cc(C#N)cc(-c2nn(CC(=O)N(C)c3ccc4c(c3)OC(F)(F)O4)c(=O)c3ccoc23)c1 [Example 86],+++ (NAUC>70% of positive control)
12,CCN(C(=O)Cn1nc(-c2cc(C)cc(C#N)c2)c2oc(C(=O)NC(C)(C)C)cc2c1=O)c1ccc2c(c1)OC(F)(F)O2 [Example 131],+++ (NAUC>70% of positive control)
13,Cc1cc2c(cc1N(C)C(=O)Cn1nc(-c3cccc(C#N)c3)c3occc3c1=O)OC(F)(F)O2 [Example 44],+++ (NAUC>70% of positive control)
14,CCN(C(=O)Cn1nc(-c2cc(C#N)cc(OC)c2)c2occc2c1=O)c1ccc2c(c1)OC(F)(F)O2 [Example 110],+++ (NAUC>70% of positive control)
15,Cc1nc2ccc(N(C)C(=O)Cn3nc(-c4cccc(C(C)(C)C)c4)c4occc4c3=O)cc2o1 [Example 92],+ (NAUC<40% of positive control)
16,CCN(C(=O)Cn1nc(-c2cccc(C(C)(C)C)c2)c2occc2c1=O)c1ccc2c(c1)OC(F)(F)O2 [Example 88],++ (NAUC 70-40% of positive control)

# Other lines, results leading:
row,Corr Activity (NAUC),SMILES
1,+ (NAUC<40% of positive control),COc1cc(OC(F)(F)F)cc(-c2nn(CC(=O)N(c3ccc4c(c3)OC(F)(F)O4)C3CC3)c(=O)c3nc[nH]c23)c1 [Example 397]
2,++ (NAUC 70-40% of positive control),O=C(Cn1nc(-c2cc(Cl)cc(C(F)(F)F)c2)c2[nH]cnc2c1=O)N(c1ccc2c(c1)OC(F)(F)O2)C1CC1 [Example 401]
3,+ (NAUC<40% of positive control),CCN(C(=O)Cn1nc(-c2cc(Cl)cc(C(=O)N(C)C)c2)c2[nH]cnc2c1=O)c1ccc2c(c1)OC(F)(F)O2 [Example 267]
4,+ (NAUC<40% of positive control),CCN(C(=O)Cn1nc(-c2ccc(C#N)c(C(F)(F)F)c2)c2[nH]cnc2c1=O)c1ccc2c(c1)OC(F)(F)O2 [Example 351]
5,+ (NAUC<40% of positive control),COc1cc(-c2nn(CC(=O)N(c3ccc4c(c3)OC(F)(F)O4)C3CC3)c(=O)c3nc[nH]c23)cc(C(F)(F)F)c1 [Example 387]
6,+++ (NAUC>70% of positive control),N#Cc1cc(-c2nn(CC(=O)N(c3ccc4c(c3)OC(F)(F)O4)C3CC3)c(=O)c3nc[nH]c23)ccc1Cl [Example 445]
7,+++ (NAUC>70% of positive control),CCN(C(=O)Cn1nc(-c2ccc(Cl)c(C#N)c2)c2[nH]cnc2c1=O)c1ccc2c(c1)OC(F)(F)O2 [Example 325]
8,+ (NAUC<40% of positive control),O=C(Cn1nc(-c2ccc(N3CCCC3)cc2)c2[nH]cnc2c1=O)N(c1ccc2c(c1)OC(F)(F)O2)C1CC1 [Example 490]
9,+ (NAUC<40% of positive control),O=C1Cc2ccc(-c3nn(CC(=O)N(c4ccc5c(c4)OC(F)(F)O5)C4CC4)c(=O)c4nc[nH]c34)cc2N1 [Example 426]
10,+++ (NAUC>70% of positive control),CCN(C(=O)Cn1nc(-c2cc(Cl)cc(N3CCCC3)c2)c2[nH]cnc2c1=O)c1ccc2c(c1)OC(F)(F)O2 [Example 277]
11,+ (NAUC<40% of positive control),CCN(C(=O)Cn1nc(-c2ccc(C(F)(F)F)c(C(F)(F)F)c2)c2[nH]cnc2c1=O)c1ccc2c(c1)OC(F)(F)O2 [Example 345]
12,+++ (NAUC>70% of positive control),CCN(C(=O)Cn1nc(-c2cc(Cl)cc(C#N)c2)c2[nH]cnc2c1=O)c1ccc2c(c1)OC(F)(F)O2 [Example 244]
13,+ (NAUC<40% of positive control),CCN(C(=O)Cn1nc(-c2cc(Cl)cc(CO)c2)c2[nH]cnc2c1=O)c1ccc2c(c1)OC(F)(F)O2 [Example 282]
14,+++ (NAUC>70% of positive control),CCN(C(=O)Cn1nc(-c2ccc(Cl)c(Cl)c2)c2[nH]cnc2c1=O)c1ccc2c(c1)OC(F)(F)O2 [Example 322]
15,++ (NAUC 70-40% of positive control),CCN(C(=O)Cn1nc(-c2ccc(OCC(F)(F)F)c(F)c2)c2[nH]cnc2c1=O)c1ccc2c(c1)OC(F)(F)O2 [Example 339]
16,++ (NAUC 70-40% of positive control),COCCOc1cc(Cl)cc(-c2nn(CC(=O)N(c3ccc4c(c3)OC(F)(F)O4)C3CC3)c(=O)c3nc[nH]c23)c1 [Example 399]
17,+ (NAUC<40% of positive control),O=C(Cn1nc(-c2cc(C(F)(F)F)cc(C(F)(F)F)c2)c2[nH]cnc2c1=O)N(c1ccc2c(c1)OC(F)(F)O2)C1CC1 [Example 382]
